In ChEMBL document CHEMBL2346623, “Deconstruction of sulfonamide inhibitors of the urotensin receptor (UT) and design and synthesis of benzylamine and benzylsulfone antagonists” (Bioorg Med Chem Lett, 2013):

Tests used:
Urotensin-2 receptor [1] = target: T1, Urotensin-2 receptor (Homo sapiens, UniProt Q9UKP6); experiment: Displacement of [125I]-U2 from human recombinant urotensin2 receptor expressed in human Chem-2 cells after 4 hrs by scintillation proximity assay; format: cell-based
T1 sequence (Q9UKP6 whole entry): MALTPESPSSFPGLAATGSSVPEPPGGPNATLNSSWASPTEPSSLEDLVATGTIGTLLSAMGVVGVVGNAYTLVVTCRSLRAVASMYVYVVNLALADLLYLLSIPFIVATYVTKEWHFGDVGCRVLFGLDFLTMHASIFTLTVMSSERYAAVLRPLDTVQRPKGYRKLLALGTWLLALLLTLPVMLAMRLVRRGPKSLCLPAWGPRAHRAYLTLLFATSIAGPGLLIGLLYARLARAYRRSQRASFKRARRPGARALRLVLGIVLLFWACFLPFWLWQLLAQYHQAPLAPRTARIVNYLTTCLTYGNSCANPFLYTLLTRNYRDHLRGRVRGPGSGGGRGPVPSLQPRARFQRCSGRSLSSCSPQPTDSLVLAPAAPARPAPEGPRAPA

Urotensin-2 receptor [2] = target: T1, Urotensin-2 receptor; experiment: Antagonist activity at recombinant human urotensin2 receptor expressed in CHO cells assessed as inhibition of urotensin2-stimulated Ca2+ mobilization after 1 hr by FLIPR assay; format: functional, cell-based
[3] = Drug metabolism in human liver microsomes relative to total liver blood flow; format: ADME, Microsome; conditions: read-out: Drug metabolism
Urotensin-2 receptor [4] = target: T2, Urotensin-2 receptor (Rattus norvegicus, UniProt P49684); experiment: Antagonist activity at rat urotensin2 receptor assessed as inhibition of urotensin2-stimulated Ca2+ mobilization by cell-based assay; format: functional
T2 sequence (P49684 whole entry): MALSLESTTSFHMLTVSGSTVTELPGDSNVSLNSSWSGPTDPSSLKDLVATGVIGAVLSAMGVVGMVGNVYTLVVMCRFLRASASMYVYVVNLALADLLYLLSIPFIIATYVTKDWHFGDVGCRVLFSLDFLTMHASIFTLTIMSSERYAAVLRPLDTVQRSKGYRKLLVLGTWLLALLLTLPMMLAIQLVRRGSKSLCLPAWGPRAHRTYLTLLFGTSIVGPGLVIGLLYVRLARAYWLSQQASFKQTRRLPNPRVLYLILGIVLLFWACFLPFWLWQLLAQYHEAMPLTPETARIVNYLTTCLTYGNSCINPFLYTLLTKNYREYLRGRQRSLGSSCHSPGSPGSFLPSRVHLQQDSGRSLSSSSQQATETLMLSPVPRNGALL

[5] = Solubility of the compound at pH 7.4; format: physicochemical; conditions: buffer
Urotensin-2 receptor [6] = target: T3, Urotensin-2 receptor (Mus musculus, UniProt Q8VIH9); experiment: Antagonist activity at mouse urotensin2 receptor assessed as inhibition of urotensin2-stimulated Ca2+ mobilization by cell-based assay; format: functional
T3 sequence (Q8VIH9 whole entry): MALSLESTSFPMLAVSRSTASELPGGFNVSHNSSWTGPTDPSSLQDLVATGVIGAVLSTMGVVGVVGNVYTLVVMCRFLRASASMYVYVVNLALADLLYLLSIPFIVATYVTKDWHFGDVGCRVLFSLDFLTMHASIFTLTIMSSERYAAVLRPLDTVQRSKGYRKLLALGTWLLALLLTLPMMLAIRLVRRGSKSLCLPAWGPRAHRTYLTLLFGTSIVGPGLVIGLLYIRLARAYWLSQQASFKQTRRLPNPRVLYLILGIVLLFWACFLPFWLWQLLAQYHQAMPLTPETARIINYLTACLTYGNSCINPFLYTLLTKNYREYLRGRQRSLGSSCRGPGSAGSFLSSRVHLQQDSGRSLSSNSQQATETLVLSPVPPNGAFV

[7] = Solubility of the compound at pH 4.5; format: physicochemical; conditions: buffer
[8] = Drug metabolism in rat liver microsomes relative to total liver blood flow; format: ADME, Microsome; conditions: read-out: Drug metabolism
Urotensin-2 receptor [9] = target: T1, Urotensin-2 receptor; experiment: Antagonist activity at recombinant human urotensin2 receptor expressed in CHO cells assessed as inhibition of urotensin2-stimulated Ca2+ mobilization incubated 10 mins prior to urotensin2 stimulation measured after 10 mins by fluorometric analysis; format: functional, cell-based
Urotensin-2 receptor [10] = target: T1, Urotensin-2 receptor; experiment: Displacement of [125I]-U2 from recombinant human urotensin2 receptor expressed in human U2OS cells after 30 mins by gamma counting analysis; format: cell-based

| Structure (SMILES) | IC50 (Urotensin-2 receptor [1]) [nM] | IC50 (Urotensin-2 receptor [2]) [nM] | hepatic extraction ratio [3] | further results |
| --- | --- | --- | --- | --- |
| COc1cc(Br)c(CNc2ccc(Cl)c(OCCN(C)C)c2)cc1OC | 1200 | 1300 | – | – |
| CN(C)CCOc1cc(NCc2ccccc2Br)ccc1Cl | 3500 | 6000 | – | – |
| COc1cc(Br)c([S+]([O-])Cc2ccc(Cl)c(O[C@@H]3CCN(C)C3)c2)cc1OC (stereo partly drawn) | 245 | – | 0.72 | – |
| COc1cc(Br)c(CNc2ccc(C(F)(F)F)c(O[C@H]3CCN(C)C3)c2)cc1OC | 217 | 191 | 0.43 | IC50 (Urotensin-2 receptor [4]): 3900 nM; solubility [5]: > 52 µg/mL; IC50 (Urotensin-2 receptor [6]): 6400 nM; solubility [7]: > 52 µg/mL; hepatic extraction ratio [8]: < 0.06 |
| COc1cc(Br)c(S(=O)(=O)Nc2ccc(C(F)(F)F)c(OCCN(C)C)c2)cc1OC | 134 | 100 | – | – |
| COc1cc(Br)c(S(=O)(=O)Nc2ccc(C(F)(F)F)c(OCCN3CCN(C)CC3)c2)cc1OC | 840 | – | – | – |
| COc1cc(Br)c(SCc2ccc(Cl)c(O[C@@H]3CCN(C)C3)c2)cc1OC | 440 | – | 0.76 | – |
| COc1cc(Br)c(S(=O)(=O)Nc2ccc(C(F)(F)F)c(OC[C@H]3CCCN3C)c2)cc1OC | 800 | 350 | – | – |
| Cc1cc(NC(=O)NCCN2CCC(O)(Cc3ccccc3)CC2)c2ccccc2n1 [PALOSURAN] | – | – | 0.53 | IC50 (Urotensin-2 receptor [9]): 39 nM; IC50 (Urotensin-2 receptor [10]): < 5 nM |
| COc1cc(Br)c(S(=O)(=O)Nc2ccc(C(F)(F)F)c(F)c2)cc1OC | > 10000 | – | – | – |
| CN1CC[C@H](Oc2cc(NCc3cc4c(cc3Br)OCO4)ccc2C(F)(F)F)C1 | 450 | 950 | – | – |
| COc1cc(Br)c(S(=O)(=O)Cc2ccc(Cl)c(O[C@@H]3CCN(C)C3)c2)cc1OC | – | – | – | IC50 (Urotensin-2 receptor [4]): 2000 nM; solubility [5]: > 87 µg/mL; IC50 (Urotensin-2 receptor [6]): 4700 nM; solubility [7]: > 87 µg/mL |
| COc1cc(Br)c(CNc2ccc(Cl)c(O[C@H]3CCN(C)C3)c2)cc1OC | 1350 | 1450 | 0.36 | – |
| CN(C)CCOc1cc(NCc2ccccc2C(F)(F)F)ccc1Cl | 520 | 765 | – | – |

Second part, led by results:

| IC50 (Urotensin-2 receptor [1]) [nM] | IC50 (Urotensin-2 receptor [2]) [nM] | hepatic extraction ratio [3] | Structure (SMILES) | further results |
| --- | --- | --- | --- | --- |
| 6200 | – | – | COc1cc(Br)c(S(=O)(=O)Nc2ccc(C(F)(F)F)c(OCCN3CCOCC3)c2)cc1OC | – |
| > 10000 | – | – | CN(C)CCOc1cc(NCc2ccccc2)ccc1Cl | – |
| 237 | 1330 | 0.28 | COc1cc(Br)c(CNc2ccc(Cl)c(O[C@@H]3CCN(C)C3)c2)cc1OC | – |
| 2700 | 2000 | – | CN1CC[C@H](Oc2cc(NCc3cccs3)ccc2C(F)(F)F)C1 | – |
| 620 | 1400 | – | CN1CC[C@H](Oc2cc(NCc3c(Br)ccc4c3OCO4)ccc2C(F)(F)F)C1 | – |
| 23 | 43 | 0.65 | COc1cc(Br)c(S(=O)(=O)Nc2ccc(Cl)c(O[C@@H]3CCN(C)C3)c2)cc1OC | – |
| 2100 | – | – | COc1cc(Br)c(S(=O)(=O)Nc2ccc(C(F)(F)F)c(OC[C@@H]3CCCN3C)c2)cc1OC | – |
| 691 | 1130 | – | COc1cccc(CNc2ccc(C(F)(F)F)c(O[C@H]3CCN(C)C3)c2)c1 | – |
| 821 | 1870 | – | CN1CC[C@H](Oc2cc(NCc3ccccc3Br)ccc2C(F)(F)F)C1 | – |
